These results are taken from patent publication US20240254089A1, “MODULATORS OF MAS-RELATED G-PROTEIN RECEPTOR X4 AND RELATED PRODUCTS AND METHODS” (ESCIENT PHARMACEUTICALS, INC., priority 2020, published 2024).

The assay has as its target T1, human MRGPR X4 (Homo sapiens, UniProt Q96LA9).
T1 construct: expressed in transfected cells
In words: MRGPR X4 antagonist activity, IP-One Gq HTRF assay in stably transfected HEK cells. The assay is classed as cell-based. On the procedure: HEK cells stably transfected to express human MIRGPR X4 were maintained in an incubator at 37° C. with 5% CO2 and grown in DMEM media with 10% fetal bovine serum (FBS) and […] each of sodium pyruvate, Glutamax, penicillin/streptomycin, and Geneticin. HEK cells stably transfected to express mouse MRGPR A1 were maintained in the same incubator and grown in DMEM media with 10% FBS, 1% each of sodium pyruvate, Glutamax, penicillin/streptomycin, Geneticin, and 2.2 mg/mL Hygromycin.
Cells were plated in a 384-well assay plate at 20,000 cells per well in 12 μL of Opti-MEM and kept in an incubator overnight. On the day of the assay, compounds solubilized at 10 mM in DMSO were added as a 10-point curve (10 uM final top concentration with 1:3 serial dilutions) using a Tecan D300E digital dispenser. Agonists were diluted in assay buffer (final concentrations of 5.7 mM Tris-HCl, 43 mM NaCl, 50 mM LiCl, pH=8) and 2 μL of the appropriate agonist are added to each well. Final concentrations of agonists were 10 μM bilirubin, 20 μM deoxycholic acid, or 100 μM conjugated bilirubin (obtained from Lee Biosolutions, catalog #910-12). Final concentrations of DMSO were kept consistent across the plate. Plates were incubated in the dark for 1 h at 37° C. and then for 30 minutes at room temperature. IP-1 standards and HTRF detection reagents were added according to the IP-One—Gq Kit purchased from Cisbio (part number 62IPAPEJ) and incubated in the dark for 1 h at room temperature. The plate was read on a Molecular Devices SpectraMax iD5 plate reader. The HTRF ratio was calculated from the raw data and graphed using GraphPad Prism to calculate an IC50 value for each compound.

Setting [1] is: versus 20 μM deoxycholic acid agonist, HEK cells expressing human MRGPR X4, read-out: MRGPRX4 Antagonist Activity.

Read-outs that look alike come from different tables or passages of the source.

T1 sequence (Q96LA9 whole entry): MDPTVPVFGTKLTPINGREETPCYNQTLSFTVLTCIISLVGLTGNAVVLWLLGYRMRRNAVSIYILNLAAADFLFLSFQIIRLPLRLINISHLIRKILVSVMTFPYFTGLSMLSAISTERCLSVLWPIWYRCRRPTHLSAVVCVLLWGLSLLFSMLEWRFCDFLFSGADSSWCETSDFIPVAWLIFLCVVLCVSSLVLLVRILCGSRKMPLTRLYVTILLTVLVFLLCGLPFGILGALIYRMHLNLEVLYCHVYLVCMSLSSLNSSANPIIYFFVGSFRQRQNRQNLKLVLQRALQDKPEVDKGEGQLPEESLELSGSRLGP

In the case of `Cc1ccc(Cn2nc(C(=O)NCCc3ccnn3C)c3ccccc32)cc1` [Compound 124], the IC50 was over 2500 nM.
`O=C(NCCc1cccnc1)c1nn(Cc2ccccc2F)c2ccccc12` [Compound 125] displayed an IC50 of over 2500 nM.
`Cc1ccc(Cn2nc(C(=O)NCCc3ncon3)c3ccccc32)cc1` [Compound 126] gave an IC50 of over 2500 nM.
For `CC(Cc1ccccn1)NC(=O)c1nn(Cc2ccc(Cl)cc2)c2ccccc12` (stereo not shown) [Compound 127], the IC50 is over 2500 nM.
In turn, `Cc1ccc(Cn2nc(C(=O)NCCc3cnoc3)c3ccccc32)cc1` [Compound 128] returned an IC50 of over 2500 nM.
With `O=C(NCCc1nnc(C2CCOCC2)[nH]1)c1nn(Cc2cccc(F)c2)c2ccccc12` [Compound 129], the IC50 under setting [1] is over 2500 nM.
In turn, `O=C(Nc1cccnc1)c1nn(Cc2ccc(Cl)cc2)c2ccccc12` [Compound 130] registered an IC50 of over 2500 nM.
`O=C(NCCc1nc2c(s1)CCCC2)c1nn(Cc2ccc(Cl)cc2F)c2ccccc12` [Compound 131] returned an IC50 of 100 to 500 nM.
Compound `O=C(CNC(=O)c1nn(Cc2ccc(Cl)cc2)c2ccccc12)c1cccnc1` [Compound 132] had an IC50 of 100 to 500 nM.
`O=C(Nc1cncnc1)c1nn(Cc2ccc(Cl)cc2)c2ccccc12` [Compound 133] returned an IC50 of 1000 to 2500 nM.
In turn, `O=C(Nc1cnc2ccccc2c1)c1nn(Cc2ccc(Cl)cc2)c2ccccc12` [Compound 134] came in with an IC50 of 1000 to 2500 nM.
Same read-out and setting: the same measure for `Cc1ccc(Cn2nc(C(=O)NCCc3c[nH]c4ccccc34)c3ccccc32)cc1` [Compound 135, N-(2-(1H-indol-3-yl)ethyl)-1-(4-methylbenzyl)-1H-indazole-3-carboxamide]: 1000 to 2500 nM; for `O=C(NCCc1cccnc1)c1nn(Cc2ccc(OC(F)(F)F)cc2)c2ccccc12` [Compound 136, N-(2-(pyridin-3-yl)ethyl)-1-(4-(trifluoromethoxy)benzyl)-1H-indazole-3-carboxamide]: 100 to 500 nM; for `CC(C)c1cn(CCNC(=O)c2nn(Cc3ccc(Cl)cc3)c3ccccc23)nn1` [Compound 137, 1-(4-chlorobenzyl)-N-(2-(4-isopropyl-1H-1,2,3-triazol-1-yl)ethyl)-1H-indazole-3-carboxamide]: under 100 nM.
On the same count and under the same terms, in the case of `O=C(NCCn1cc(C2CC2)nn1)c1nn(Cc2ccc(Cl)cc2)c2ccccc12` [Compound 138] it was under 100 nM; in that of `CC1(c2cn(CCNC(=O)c3nn(Cc4ccc(Cl)cc4)c4ccccc34)nn2)COC1` [Compound 139], 100 to 500 nM; in that of `CC(C)(O)c1cn(CCNC(=O)c2nn(Cc3ccc(Cl)cc3)c3ccccc23)nn1` [Compound 140], 501 to 1000 nM.
On the same count and under the same terms, the same measure for `O=C(NCCn1cc(-c2ccccc2)nn1)c1nn(Cc2ccc(Cl)cc2)c2ccccc12` [Compound 141]: 501 to 1000 nM.
With `CNCc1cn(CCNC(=O)c2nn(Cc3ccc(Cl)cc3)c3ccccc23)nn1` [Compound 142], under setting [1], the IC50 is over 2500 nM.
`CC(C)c1cnnn1CCNC(=O)c1nn(Cc2ccc(Cl)cc2)c2ccccc12` [Compound 143, 1-(4-chlorobenzyl)-N-(2-(5-isopropyl-1H-1,2,3-triazol-1-yl)ethyl)-1H-indazole-3-carboxamide] had an IC50 of 100 to 500 nM.
The same measure, in the same setting: in the case of `O=C(NCCn1cc(-c2cccnc2)nn1)c1nn(Cc2ccc(Cl)cc2)c2ccccc12` [Compound 144, 1-(4-chlorobenzyl)-N-(2-(4-(pyridin-3-yl)-1H-1,2,3-triazol-1-yl)ethyl)-1H-indazole-3-carboxamide] it was 100 to 500 nM.
Regarding `O=C(NCCn1cc(-c2cncnc2)nn1)c1nn(Cc2ccc(Cl)cc2)c2ccccc12` [Compound 145], the IC50 was 501 to 1000 nM.
`O=C(NCCn1cc(C2CCNCC2)nn1)c1nn(Cc2ccc(Cl)cc2)c2ccccc12` [Compound 146]: the IC50 under setting [1] was over 2500 nM.
As to `O=C(NCCn1cc(CN2CCS(=O)(=O)CC2)nn1)c1nn(Cc2ccc(Cl)cc2)c2ccccc12` [Compound 147], under setting [1], the IC50 was over 2500 nM.
For the compound `O=C(CCc1cccnc1)Nc1nn(Cc2ccc(Cl)cc2)c2ccccc12` [Compound 148, N-(1-(4-chlorobenzyl)-1H-indazol-3-yl)-3-(pyridin-3-yl)-propanamide], under setting [1], the IC50 was 1000 to 2500 nM.
Turning to `O=C(NCC(O)c1cccnc1)c1cn(Cc2ccc(Cl)cc2)c2ccccc12` (stereo not shown) [Compound 150], the IC50 fell in the range of 100 to 500 nM.
Same read-out and setting: in the case of `Cc1ccc(CCNC(=O)c2cn(Cc3ccc(Cl)cc3)c3ccccc23)cn1` [Compound 151] it was under 100 nM; in that of `Cc1ncccc1CCNC(=O)c1cn(Cc2ccc(Cl)cc2)c2ccccc12` [Compound 152, 1-(4-chlorobenzyl)-N-(2-(2-methylpyridin-3-yl)ethyl)-1H-indole-3-carboxamide], under 100 nM; in that of `Cc1cccc(CCNC(=O)c2cn(Cc3ccc(Cl)cc3)c3ccccc23)n1` [Compound 153], under 100 nM.
Take `O=C(NCCc1cncc(F)c1)c1cn(Cc2ccc(Cl)cc2)c2ccccc12` [Compound 154]: the IC50 is under 100 nM.
Still for that read-out and setting: the same measure for `COc1ncccc1CCNC(=O)c1cn(Cc2ccc(Cl)cc2)c2ccccc12` [Compound 155]: 100 to 500 nM; for `Cc1ccc(CCNC(=O)c2cn(Cc3ccc(Cl)cc3)c3ccccc23)c(C)n1` [Compound 156]: 100 to 500 nM.
`Cc1ccc(Cn2cc(C(=O)NCCc3ccccn3)c3ccccc32)cc1` [Compound 158]: the IC50 lay in the range of 100 to 500 nM.
Same read-out and setting: the same measure for `Cc1ccc(Cn2cc(C(=O)NCCc3nc(C)cs3)c3ccccc32)cc1` [Compound 159]: 100 to 500 nM; for `Cc1ccc(Cn2cc(C(=O)NCCc3cccnc3)c3ccccc32)cc1` [Compound 160]: 100 to 500 nM.
On the same count and under the same terms, the same measure for `Cc1ccncc1CCNC(=O)c1cn(Cc2ccc(Cl)cc2)c2ccccc12` [Compound 161]: 100 to 500 nM; for `O=C(NCCc1cccc(F)c1)c1cn(Cc2ccc(Cl)cc2)c2ccccc12` [Compound 162]: 100 to 500 nM; for `O=C(NCCc1ccncc1)c1cn(Cc2ccc(Cl)cc2)c2ccccc12` [Compound 163]: 100 to 500 nM.
`COc1cccc(CCNC(=O)c2cn(Cc3ccc(Cl)cc3)c3ccccc23)c1` [Compound 164] came in with an IC50 of 100 to 500 nM.
In turn, `Cc1ccc(Cn2cc(C(=O)NCCc3nc4c(s3)CCCC4)c3ccccc32)cc1` [Compound 165] returned an IC50 of 100 to 500 nM.
The same measure, in the same setting: the same measure for `O=C(NCCc1cccnc1)c1cn(Cc2ccc(OC(F)F)cc2)c2ccccc12` [Compound 166]: 100 to 500 nM; for `O=C(NCCc1ccccn1)c1cn(Cc2ccc(OC(F)F)cc2)c2ccccc12` [Compound 167]: 100 to 500 nM.
On the same count and under the same terms, the same measure for `COc1ccc(CCNC(=O)c2cn(Cc3ccc(Cl)cc3)c3ccccc23)cn1` [Compound 168]: 100 to 500 nM.
Take `Cc1ccc(Cn2cc(C(=O)NCCc3c[nH]c4ccccc34)c3ccccc32)cc1` [Compound 169]: the IC50 is 100 to 500 nM.
On the same count and under the same terms, the same measure for `O=C(NCCc1ccccc1F)c1cn(Cc2ccc(Cl)cc2)c2ccccc12` [Compound 170]: 100 to 500 nM; for `O=C(NCCc1cnccn1)c1cn(Cc2ccc(Cl)cc2)c2ccccc12` [Compound 171]: 100 to 500 nM; for `Cc1ccc(Cn2cc(C(=O)NCCc3ccncc3)c3ccccc32)cc1` [Compound 172]: 100 to 500 nM.
Still for that read-out and setting: the same measure for `O=C(NCCc1cccnc1)c1cn(Cc2ccc(OC(F)(F)F)cc2)c2ccccc12` [Compound 173]: 100 to 500 nM; for `Cc1ccc(Cn2cc(C(=O)NCCc3nc4c(s3)CCC4)c3ccccc32)cc1` [Compound 174]: 100 to 500 nM.
`Cc1ccc(CCNC(=O)c2cn(Cc3ccc(Cl)cc3)c3ccccc23)cc1` [Compound 175]: the IC50 is 100 to 500 nM.
The same measure, in the same setting: in the case of `COc1ccc(Cn2cc(C(=O)NCCc3cccnc3)c3ccccc32)cc1` [Compound 176] it was 100 to 500 nM.
On the same count and under the same terms, in the case of `COc1ccccc1CCNC(=O)c1cn(Cc2ccc(Cl)cc2)c2ccccc12` [Compound 177] it was 100 to 500 nM; in that of `Cc1ccccc1CCNC(=O)c1cn(Cc2ccc(Cl)cc2)c2ccccc12` [Compound 178], 100 to 500 nM.
With `O=C(NCCc1ccc(F)cc1)c1cn(Cc2ccc(Cl)cc2)c2ccccc12` [Compound 179], the IC50 lay in the range of 100 to 500 nM.
On the same count and under the same terms, in the case of `Cc1cccc(CCNC(=O)c2cn(Cc3ccc(Cl)cc3)c3ccccc23)c1` [Compound 180] it was 100 to 500 nM; in that of `Cc1ccc(Cn2cc(C(=O)NCCc3cn4c(n3)SCC4)c3ccccc32)cc1` [Compound 181], 100 to 500 nM; in that of `COc1ccc(CCNC(=O)c2cn(Cc3ccc(Cl)cc3)c3ccccc23)cc1` [Compound 182], 100 to 500 nM.
Same read-out and setting: the same measure for `O=C(NCCc1cccnc1)c1cn(Cc2ccccc2Cl)c2ccccc12` [Compound 183]: 501 to 1000 nM.
The same measure, in the same setting: in the case of `N#Cc1ccc(Cn2cc(C(=O)NCCc3ccccn3)c3ccccc32)cc1` [Compound 184] it was 501 to 1000 nM; in that of `N#Cc1ccc(CCNC(=O)c2cn(Cc3ccc(Cl)cc3)c3ccccc23)cn1` [Compound 185], 501 to 1000 nM; in that of `O=C(NCCc1cccnc1)c1cn(Cc2cccc(OC(F)(F)F)c2)c2ccccc12` [Compound 186], 501 to 1000 nM.
